Among the test systems are SK-MEL-2; COLO 205; OVCAR-4; A549; KM12; MDA-N; T47D; SR; RPMI-8226; SW-620; PC-3; SK-OV-3; ACHN; HOP-62; NCI-H522; NCI-H226; LOX IMVI; DU-145; CAKI-1; U-251.
What all share (experiment): NCI anticancer screen, dose series, 48 h

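Briefly, cells in 96-well plates were exposed to five compound concentrations for 48 h, and endpoints were estimated by linear interpolation. The concentration for 50% growth inhibition is given as GI50.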 The source made the active and inactive calls. Cut-off read from the data, not from the text of the source: active = GI50 up to about 1.1 µM and inactive = higher.

Take `COc1ccc(C(c2ccccc2)N2C(=O)CCC2C(=O)O)cc1OC` (stereo not given): the GI50 in the experiment with SK-MEL-2, in the experiment with COLO 205, in the experiment on OVCAR-4, in the experiment on A549, in the experiment with KM12 and with MDA-N was > 100 µM (inactive) throughout. Also, the GI50 with T47D, in the experiment on SR, in the experiment on RPMI-8226, in the experiment with SW-620, in the experiment on PC-3 and with SK-OV-3 was > 100 µM (inactive) in each case. In addition, the GI50 with ACHN, in the experiment with HOP-62, in the experiment on NCI-H522, with NCI-H226, with LOX IMVI and with DU-145 was > 100 µM (inactive) each time. For the same molecule, the GI50 with CAKI-1 and in the experiment on U-251 was > 100 µM (inactive) throughout.
`O=C1c2cccnc2S(=O)(=O)N1c1ccc([N+](=O)[O-])cc1`: the GI50 with SK-MEL-2, in the experiment with COLO 205, in the experiment with OVCAR-4, in the experiment with A549, with KM12 and in the experiment on MDA-N was > 100 µM (inactive) each time. In addition, the GI50 is > 100 µM (inactive) in the experiment on T47D; 29.9 µM (inactive) in the experiment on SR; 57 µM (inactive) in the experiment on RPMI-8226; > 100 µM (inactive) in the experiment on SW-620; > 100 µM (inactive) in the experiment with PC-3; > 100 µM (inactive) in the experiment on SK-OV-3. The GI50 with ACHN is > 100 µM (inactive); with HOP-62, > 100 µM (inactive); with NCI-H522, 24.9 µM (inactive); in the experiment with NCI-H226, > 100 µM (inactive); in the experiment with LOX IMVI it was > 100 µM (inactive); in the experiment with DU-145, > 100 µM (inactive). The GI50 in the experiment with CAKI-1 and with U-251 was > 100 µM (inactive) in each case.
Turning to `C=C(C)/C=C/C(O)[C@](C)(O)[C@H]1[C@H](O)C[C@@]2(C)[C@@H]3CCc4c(cc(OC5OC(CO)C(O)C(O)C5O)c(O)c4C)C3(C)C(=O)C[C@]12C` (stereo not given in full), the GI50 in the experiment with SK-MEL-2, in the experiment with COLO 205, with OVCAR-4, in the experiment on A549, with KM12 and in the experiment on MDA-N was > 100 µM (inactive) each time. The GI50 in the experiment with T47D, with SR, in the experiment on SW-620, in the experiment on PC-3, with SK-OV-3 and in the experiment with ACHN was > 100 µM (inactive) each time. Besides, the GI50 with HOP-62, in the experiment with NCI-H522, in the experiment with NCI-H226, with LOX IMVI, in the experiment with DU-145 and in the experiment with CAKI-1 was > 100 µM (inactive) in each case. For the same molecule, the GI50 with U-251 was > 100 µM (inactive).
`COc1ccc(S(=O)(=O)Nc2ccc(-c3csc(N4C(=O)/C(=C/c5ccccc5[N+](=O)[O-])N=C4c4ccccc4)n3)cc2)cc1Cl`: the GI50 in the experiment on SK-MEL-2 is 60.5 µM (inactive); in the experiment with COLO 205, 65.8 µM (inactive); with OVCAR-4 it was 19.7 µM (inactive); in the experiment with A549 it was 33 µM (inactive); in the experiment on KM12 it was 50.6 µM (inactive); in the experiment with MDA-N, 60 µM (inactive). For the same molecule, the GI50 in the experiment with T47D is 24.5 µM (inactive); with SR, 30.8 µM (inactive); in the experiment on SW-620, 46 µM (inactive); with PC-3, 32.6 µM (inactive); in the experiment on SK-OV-3 it was > 100 µM (inactive); in the experiment on ACHN it was 50.5 µM (inactive). The GI50 in the experiment on HOP-62 was > 100 µM (inactive); in the experiment on NCI-H522 it was 35.9 µM (inactive); in the experiment with NCI-H226, > 100 µM (inactive); in the experiment with LOX IMVI it was 34.8 µM (inactive); in the experiment on DU-145 it was 83 µM (inactive); in the experiment on CAKI-1, > 100 µM (inactive). Moreover, the GI50 in the experiment with U-251 is 37.2 µM (inactive).
Regarding `NCC#CCNCCCN1CC1`, the GI50 with SK-MEL-2, in the experiment with COLO 205, with OVCAR-4, in the experiment with A549, in the experiment on KM12 and with MDA-N was > 100 µM (inactive) throughout. The GI50 is > 100 µM (inactive) in the experiment on T47D; > 100 µM (inactive) in the experiment on SR; 6.11 µM (inactive) in the experiment with RPMI-8226; > 100 µM (inactive) in the experiment on SW-620; > 100 µM (inactive) in the experiment on PC-3; > 100 µM (inactive) in the experiment on SK-OV-3. Moreover, the GI50 in the experiment on ACHN, in the experiment on HOP-62, in the experiment with NCI-H522, with NCI-H226, in the experiment with LOX IMVI and with DU-145 was > 100 µM (inactive) in each case. Further, the GI50 with CAKI-1 and in the experiment with U-251 was > 100 µM (inactive) each time.
Take `Cc1cc(N(CCC#N)CCC#N)ccc1C(=N/NC(=O)c1cc(Cl)ccc1O)/N=N/c1cccc(Cl)c1`: the GI50 in the experiment with SK-MEL-2 is 10.8 µM (inactive); in the experiment on COLO 205, 5.96 µM (inactive); with OVCAR-4, 8.85 µM (inactive); in the experiment with A549, 17.1 µM (inactive); in the experiment on KM12, 11.2 µM (inactive); in the experiment with MDA-N it was 29.5 µM (inactive). The GI50 was 15.4 µM (inactive) in the experiment with T47D; 6.04 µM (inactive) in the experiment on SR; 9.79 µM (inactive) in the experiment on RPMI-8226; 17.8 µM (inactive) with SW-620; 10.1 µM (inactive) in the experiment on PC-3; 20.6 µM (inactive) in the experiment on SK-OV-3. For the same molecule, the GI50 with ACHN is 13 µM (inactive); in the experiment on HOP-62, 13.2 µM (inactive); with NCI-H522 it was 13.5 µM (inactive); in the experiment on NCI-H226, 18.8 µM (inactive); in the experiment with LOX IMVI, 11.4 µM (inactive); in the experiment on DU-145, 18.1 µM (inactive). Further, the figures for the GI50 with CAKI-1 and in the experiment with U-251 were 17.9 µM (inactive) and 25.2 µM (inactive), respectively.
With `Cc1nc2ccc(Cl)cc2c2c1CCN2c1ccccc1`, the GI50 in the experiment on COLO 205 was 2.76 µM (inactive); in the experiment on OVCAR-4, 26.4 µM (inactive); in the experiment on A549, 15 µM (inactive); in the experiment with KM12, 17.5 µM (inactive); in the experiment on MDA-N, 1.5 µM (inactive); in the experiment with T47D, 14.5 µM (inactive). Besides, the GI50 is 14.3 µM (inactive) in the experiment with SR; 12.4 µM (inactive) in the experiment on RPMI-8226; 18.6 µM (inactive) in the experiment with SW-620; 10.6 µM (inactive) in the experiment on PC-3; 16.9 µM (inactive) in the experiment with ACHN; 21.5 µM (inactive) in the experiment with HOP-62. For the same molecule, the GI50 is 11.7 µM (inactive) with NCI-H522; 7.89 µM (inactive) in the experiment with NCI-H226; 10.3 µM (inactive) with LOX IMVI; 19.5 µM (inactive) in the experiment with DU-145; 11.5 µM (inactive) in the experiment on CAKI-1; 16.4 µM (inactive) with U-251.
Take `CC1OC(NCCNCCNC2OC(C)C(O)C(O)C2O)C(O)C(O)C1O` (stereo not given): the GI50 in the experiment on SK-MEL-2, in the experiment with COLO 205, with OVCAR-4, in the experiment on A549, with KM12 and in the experiment with MDA-N was > 100 µM (inactive) throughout. The GI50 in the experiment with T47D, with SR, in the experiment on RPMI-8226, with SW-620, with PC-3 and in the experiment on ACHN was > 100 µM (inactive) in each case. Further, the GI50 with HOP-62, in the experiment with NCI-H522, with NCI-H226, with LOX IMVI, with DU-145 and with U-251 was > 100 µM (inactive) throughout.
Take `COC1C(C)OC(OC2CC(C)(O)Cc3cc4c(c(O)c32)C(=O)c2c(O)cc3c(c2C4=O)OC2OC3(C)C(O)C(N(C)C)C2O)C(OC)C1(C)OC` (stereo not given): the GI50 in the experiment with SK-MEL-2 was 0.0158 µM (active); in the experiment with COLO 205, 0.0179 µM (active); in the experiment on OVCAR-4 it was 0.19 µM (active); with A549, 0.00498 µM (active); with KM12, 0.00527 µM (active); with MDA-N, 0.00053 µM (active). Besides, the GI50 with T47D is 2.9e-05 µM (active); with SR, 0.00385 µM (active); with RPMI-8226, 0.015 µM (active); in the experiment with SW-620 it was 0.00457 µM (active); with PC-3 it was 0.000204 µM (active); in the experiment on SK-OV-3, 0.136 µM (active). Moreover, the GI50 in the experiment on HOP-62 is 0.0527 µM (active); with NCI-H522, 0.00447 µM (active); in the experiment on NCI-H226, 0.0508 µM (active); in the experiment with LOX IMVI, 0.00316 µM (active); with DU-145, 0.000809 µM (active); in the experiment on U-251, 0.00285 µM (active).
On to `O=C1CC(Cl)c2c(Cl)sc(Cl)c21` (stereo not given), for which the GI50 with COLO 205 is 2.02 µM (inactive); in the experiment on OVCAR-4 it was 4.57 µM (inactive); with A549 it was 3.56 µM (inactive); with KM12 it was 1.67 µM (inactive); with MDA-N, 2.32 µM (inactive); in the experiment on T47D, 2.92 µM (inactive). The GI50 with SR is 1.41 µM (inactive); in the experiment on RPMI-8226 it was 0.155 µM (active); with SW-620 it was 1.75 µM (inactive); in the experiment on PC-3, 2.2 µM (inactive); with SK-OV-3, 18.6 µM (inactive); in the experiment with ACHN, 1.95 µM (inactive). The GI50 in the experiment with HOP-62 is 6 µM (inactive); in the experiment with NCI-H522, 1.21 µM (inactive); in the experiment on NCI-H226 it was 13.4 µM (inactive); in the experiment with LOX IMVI, 1.66 µM (inactive); with DU-145, 2.47 µM (inactive); in the experiment on CAKI-1, 1.76 µM (inactive).

The values above are taken from ChEMBL document CHEMBL1201862, “PubChem BioAssay data set” (2004).
